Measured values as given in US10383912B2, “Tunable pH-sensitive linker for controlled drug release” (Washington State University, priority 2014, dated 2019).

Legend:
[1] = pH stability: half-lives for P—N bond hydrolysis of model linkers; assay type: physicochemical
Excerpt: The present disclosure provides a method of screening for conjugates that can deliver an agent at a specific pH. In one aspect, conjugates having formula (I) comprising various substituents neighboring the ionizable group and having varying length between the ionizable group and the phosphorus center could be screened to determine which conjugates will hydrolyze at pH 3.0, 3.5, 4.0, 4.5, 5.0, 5.5, 6.0, and 6.5. In another aspect, a specific conjugate can be screened to determine at which pH it will hydrolyze or which pH its rate of hydrolysis is the fastest. The hydrolysis of the conjugate can be monitored by nuclear magnetic resonance (NMR) (FIG. 6), HPLC, spectrophotometric methods, or mass spectrometry.
It was observed from studies on distance effects that proximity of a neighboring, but electronically isolated, functional group, can be used to alter the stability of a phorphoramidate bond.

[2] = Plasma stability of cleavable linkers; assay type: in vitro ADME
Protocol: When a conjugate is administered to a subject in vivo, its plasma stability is important. The present disclosure provides conjugates with the desired plasma stability. Plasma stability of cleavable linkers with the desired release profile are provided herein.

Compound | ½ Lives for P—N Bond Hydrolysis, pH 3 [1] | ½ Lives for P—N Bond Hydrolysis, pH 5.5 ([1]; pH 5.5) | ½ Lives for P—N Bond Hydrolysis, pH 6.5 [1] | ½ Lives for P—N Bond Hydrolysis, pH 7.4 [1] | ½ Lives for P—N Bond Hydrolysis, pH 4.5 [1] | further results
O=P(O)(Nc1ccccc1)OCCc1ccccn1 [Entry H85] | 0.32 hr | 0.96 hr | 1.9 hr | 9.6 hr | – | –
Cc1ccc(C(=O)NC(COP(=O)(O)NCCc2ccccc2)C(=O)O)cc1 (stereo not drawn) [Entry H157] | – | 38.5 min | 1.93 hr | 19.3 hr | 5.25 min | –
CN(c1ccccc1)P(=O)(O)OCCc1cccnc1 [Entry H105] | 0.64 hr | 9.6 hr | 19.3 hr | 10 days | 3.85 hr | –
CN(CCc1ccccc1)P(=O)(O)OCCc1ccccn1 [Entry H69] | – | – | – | – | – | ½ Lives for P—N Bond Hydrolysis, pH 3 (result in words) [1]: Unstable; ½ Lives for P—N Bond Hydrolysis, pH 4.5 (result in words) [1]: Unstable; ½ Lives for P—N Bond Hydrolysis, pH 5.5 (result in words) ([1]; pH 5.5): Unstable; ½ Lives for P—N Bond Hydrolysis, pH 6.5 (result in words) [1]: Unstable; ½ Lives for P—N Bond Hydrolysis, pH 7.4 (result in words) [1]: Unstable
O=P(O)(NCCc1ccccc1)OCCc1cccnc1 [Entry H97] | 2.8 hr | 1.6 days | 4 days | 16 days | – | –
O=P(O)(Nc1ccccc1)OCCc1cccnc1 [Entry H113] | 4 days | 8 days | 2 days | 16 days | 20 days | ½ Lives for P—N Bond Hydrolysis, pH 6.5 (result in words) [1]: Stable
CN(c1ccccc1)P(=O)(O)OCc1ccccc1C(=O)O [Entry I11] | – | 14.4 min | 57.8 min | 6.42 hr | – | –
CN(c1ccccc1)P(=O)(O)OCCCc1cccnc1 [Entry H11] | 0.48 hr | 9.6 hr | 1.1 days | 10 day days | – | –
Cc1ccc(C(=O)NC(COP(=O)(O)N(C)c2ccccc2)C(=O)O)cc1 (stereo not drawn) [Entry H161] | – | 16.5 min | 38.5 min | 6.42 hr | 0.98 min | –
O=P(O)(NCCc1ccccc1)OCCc1ccccn1 [Entry H119] | – | 0.13 hr | 0.32 hr | 2.1 hr | – | ½ Lives for P—N Bond Hydrolysis, pH 3 (result in words) [1]: Unstable
Cc1ccc(C(=O)NC(CCOP(=O)(O)N(C)CCc2ccccc2)C(=O)O)cc1 (stereo not drawn) [Entry H179] | – | 9.62 hr | – | 2 Days days | 0.96 hr | –
CN(CCc1ccccc1)P(=O)(O)OCCCc1ccccn1 [Entry H43] | 0.21 hr | 1.2 hr | 3.85 hr | 21.4 hr | – | ½ Life for P—N Bond Hydrolysis, Plasma ([2]; Plasma (pH 7.38)): 19.3 h
O=P(O)(NCCc1ccccc1)OCCCc1cccnc1 [Entry H5] | 1.9 hr | 8 day days | – | 90 day days | 19.3 hr | ½ Lives for P—N Bond Hydrolysis, pH 6.5 (result in words) [1]: Stable
O=P(O)(Nc1ccccc1)OCCCc1cccnc1 [Entry H7] | 1.6 day days | 16 day days | 8 days | 27 day days | 133 days | ½ Lives for P—N Bond Hydrolysis, pH 4.5 (result in words) [1]: Stable; ½ Lives for P—N Bond Hydrolysis, pH 6.5 (result in words) [1]: STABLE
O=P(O)(NCCc1ccccc1)OCCCc1ccccn1 [Entry H41] | 2.1 hr | 19.3 hr | 24.1 hr | 11 days | 9.63 hr | –
CN(CCc1ccccc1)P(=O)(O)OCCCc1ccccc1 [Entry H133] | – | 9.6 hr | – | – | – | ½ Life for P—N Bond Hydrolysis, pH 5.5, second value in parentheses ([1]; pH 5.5, value in parentheses, meaning not explained): 1.9 hr
CN(CCc1ccccc1)P(=O)(O)OCCCc1cccnc1 [Entry H9] | 0.48 hr | 3.2 hr | 19.3 hr | 2.7 days | – | ½ Life for P—N Bond Hydrolysis, Plasma ([2]; Plasma (pH 7.23)): 27.5 h
Cc1ccc(C(=O)NC(COP(=O)(O)N(C)CCc2ccccc2)C(=O)O)cc1 (stereo not drawn) [Entry H155] | – | 3.98 min | 9.63 min | 1.93 hr | – | –
CN(c1ccccc1)P(=O)(O)OCCCc1ccccn1 [Entry H135] | 0.48 hr | 2.1 hr | 3.9 hr | 1.3 days | – | –
O=P(O)(Nc1ccccc1)OCCCc1ccccn1 [Entry H45] | 1.6 day days | 2.0 days | 8 days | 4 day days | 8.9 day days | –
CN(c1ccccc1)P(=O)(O)OCCc1ccccn1 [Entry H115] | – | – | – | – | – | ½ Lives for P—N Bond Hydrolysis, pH 3 (result in words) [1]: Unstable; ½ Lives for P—N Bond Hydrolysis, pH 4.5 (result in words) [1]: Unstable; ½ Lives for P—N Bond Hydrolysis, pH 5.5 (result in words) ([1]; pH 5.5): Unstable; ½ Lives for P—N Bond Hydrolysis, pH 6.5 (result in words) [1]: Unstable; ½ Lives for P—N Bond Hydrolysis, pH 7.4 (result in words) [1]: Unstable
CN(CCc1ccccc1)P(=O)(O)OCCc1cccnc1 [Entry H99] | 0.39 hr | 3.2 hr | 9.6 hr | 1.6 days | 1.93 hr | –
Cc1ccc(C(=O)NC(COP(=O)(O)Nc2ccccc2)C(=O)O)cc1 (stereo not drawn) [Entry H159] | 12.8 min | 19.25 hr | 2.0 days | 26.7 days | 3.21 hr | –
